{"source": "patent US8106073B2", "about": "“Quinoline derivatives 057” (AstraZeneca AB, priority 2007, dated 2012)", "key": {"[1]": {"biological_target": "T1, P2X7 receptor (Homo sapiens, UniProt Q99572)", "T1 construct": "200 μl of a suspension of THP-1 cells; endogenous in cells; host or cells: THP-1 cells", "T1 sequence (Q99572 1-595)": "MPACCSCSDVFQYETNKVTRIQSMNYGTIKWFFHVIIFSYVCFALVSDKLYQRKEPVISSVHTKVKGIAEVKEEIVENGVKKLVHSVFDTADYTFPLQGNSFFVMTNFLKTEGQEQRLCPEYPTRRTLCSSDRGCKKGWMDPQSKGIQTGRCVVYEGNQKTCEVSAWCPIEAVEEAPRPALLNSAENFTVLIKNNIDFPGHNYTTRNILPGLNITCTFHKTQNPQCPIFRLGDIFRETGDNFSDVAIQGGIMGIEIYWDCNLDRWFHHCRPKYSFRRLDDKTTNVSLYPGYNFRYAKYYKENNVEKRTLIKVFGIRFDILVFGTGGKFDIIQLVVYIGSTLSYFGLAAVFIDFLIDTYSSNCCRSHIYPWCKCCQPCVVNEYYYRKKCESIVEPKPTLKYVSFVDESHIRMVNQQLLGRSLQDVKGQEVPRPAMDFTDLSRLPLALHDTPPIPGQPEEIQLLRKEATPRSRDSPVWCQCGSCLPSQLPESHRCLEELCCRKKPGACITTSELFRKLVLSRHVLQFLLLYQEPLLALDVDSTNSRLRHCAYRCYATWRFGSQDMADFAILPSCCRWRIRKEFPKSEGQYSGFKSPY", "test": "P2X7 assay (bbATP-induced ethidium bromide fluorescence in THP-1 cells)", "assay_type": "cell-based", "text": "Certain compounds such as benzoylbenzoyl adenosine triphosphate (bbATP) are known to be agonists of the P2X7 receptor, effecting the formation of pores in the plasma membrane (Drug Development Research (1996), 37(3), p. 126). Consequently, when the receptor is activated using bbATP in the presence of ethidium bromide (a fluorescent DNA probe), an increase in the fluorescence of intracellular DNA-bound ethidium bromide is observed. The increase in fluorescence can be used as a measure of P2X7 receptor activation and therefore to quantify the effect of a compound on the P2X7 receptor.\nIn this manner, the compound of the invention was tested for antagonist activity at the P2X7 receptor. Thus, the test was performed in 96-well flat bottomed microtitre plates, the wells being filled with 250 μl of test solution comprising 200 μl of a suspension of THP-1 cells (2.5×10^6 cells/ml) containing 10^−4M ethidium bromide, 25 μl of a high potassium buffer solution containing 10^−5M bbATP, and 25 μl of the high potassium buffer solution containing concentrations of test compound typically from 30 μM-0.001 μM. The plate was covered with a plastic sheet and incubated at 37° C. for one hour. The plate was then read in a Perkin-Elmer fluorescent plate reader, excitation 520 nm, emission 595 nm, slit widths: Ex 15 nm, Em 20 nm. […]"}, "[2]": {"biological_target": "T2, ion channel subunit encoded by the human ether-a-go-go-related gene (hERG) (Homo sapiens, UniProt Q12809)", "T2 construct": "expressed in transfected cells; host or cells: HEK (human embryonic kidney) cells, membranes", "T2 sequence (Q12809 whole entry)": "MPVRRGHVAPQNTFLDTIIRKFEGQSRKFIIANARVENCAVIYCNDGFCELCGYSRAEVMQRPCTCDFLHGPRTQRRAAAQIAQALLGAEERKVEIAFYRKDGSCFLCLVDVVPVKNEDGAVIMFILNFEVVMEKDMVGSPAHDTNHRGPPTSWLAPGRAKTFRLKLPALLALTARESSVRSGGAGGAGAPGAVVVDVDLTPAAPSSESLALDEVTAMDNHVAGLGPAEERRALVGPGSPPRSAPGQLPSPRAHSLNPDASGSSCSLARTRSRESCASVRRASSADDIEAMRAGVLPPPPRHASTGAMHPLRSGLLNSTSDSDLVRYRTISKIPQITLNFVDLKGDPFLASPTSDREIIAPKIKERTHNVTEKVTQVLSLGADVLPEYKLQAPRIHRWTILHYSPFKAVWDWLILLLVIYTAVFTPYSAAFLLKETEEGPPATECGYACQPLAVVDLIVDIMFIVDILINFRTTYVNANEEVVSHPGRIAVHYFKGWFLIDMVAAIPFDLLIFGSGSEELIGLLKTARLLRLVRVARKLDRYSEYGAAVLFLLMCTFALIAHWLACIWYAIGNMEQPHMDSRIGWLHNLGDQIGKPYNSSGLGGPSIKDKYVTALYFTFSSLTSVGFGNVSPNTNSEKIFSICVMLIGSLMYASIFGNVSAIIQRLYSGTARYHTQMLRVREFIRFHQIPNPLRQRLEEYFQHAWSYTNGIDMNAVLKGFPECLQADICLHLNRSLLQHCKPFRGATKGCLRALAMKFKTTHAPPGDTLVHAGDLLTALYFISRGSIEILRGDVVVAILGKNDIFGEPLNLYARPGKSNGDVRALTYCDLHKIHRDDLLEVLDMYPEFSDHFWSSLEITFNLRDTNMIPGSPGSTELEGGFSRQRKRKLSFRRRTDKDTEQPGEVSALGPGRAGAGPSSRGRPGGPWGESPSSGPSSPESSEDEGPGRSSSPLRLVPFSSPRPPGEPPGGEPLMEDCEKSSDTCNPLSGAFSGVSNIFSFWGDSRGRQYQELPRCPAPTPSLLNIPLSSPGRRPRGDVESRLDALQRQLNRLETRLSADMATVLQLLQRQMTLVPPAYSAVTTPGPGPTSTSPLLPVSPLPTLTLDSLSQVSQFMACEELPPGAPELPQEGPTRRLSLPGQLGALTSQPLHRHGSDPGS", "test": "hERG binding protocol (radioligand competition, HEK cell membranes expressing hERG)", "conditions": "for P2X7:hERG Ratio: ratio of P2X7:hERG affinity", "procedure": "(§1) The hERG assay was performed according to the procedure described in WO2005/037052. The affinity (pIC50) of compounds for the ion channel subunit encoded by the human ether-a-go-go-related gene (hERG) gene was determined by competition binding of radioligand 3,7-Bis[2-(4-nitro[3,5-^3H]phenyl)ethyl]-3,7-diazabicyclo[3.3.1]nonane to HEK (human embryonic kidney) cell membranes expressing hERG, in a filter wash format.\n(§2) Membranes were incubated for 3 hours at room temperature with serial dilutions of the test compounds, radioligand 3,7-Bis[2-(4-nitro[3, 5-3H]phenyl)ethyl]-3,7-diazabicyclo[3.3.1]nonane at 1 nM final concentration, and assay buffer (10 mM HEPES, 130 mM NaCl, 5 mM KCl, 1 mM EGTA, 0.8 mM MgCl2, pH 7.4). The assay was conducted in a final volume of 200 μL, in the presence of 1% (v/v) dimethyl sulphoxide. Non-specific binding was determined by measuring the binding of 3,7-Bis[2-(4-nitro[3,5-^3H]phenyl)ethyl]-3,7-diazabicyclo[3.3.1]nonane in the presence of 10 μM astemizole. During this incubation GF/B filter plates were immersed in coating solution 0.3% (v/v) Polyethylenimine and 0.2% (w/v) BSA). Following incubation assay plates were harvested onto precoated GF/B filter plates using a Tomtec harvester.\n(§3) The pIC50, defined as the negative logarithm of the concentration of compound required for 50% reduction in 3,7-Bis[2-(4-nitro[3,5-^3H]phenyl)ethyl]-3,7-diazabicyclo[3.3.1]nonane binding, was determined. A ‘less than’ FIGURE indicates <50% inhibition at the quoted concentration, this being the highest concentration tested."}, "[3]": {"biological_target": "T3, hERG (Homo sapiens, UniProt Q12809)", "T3 construct": "expressed in transfected cells; host or cells: HEK (human embryonic kidney) cells, membranes", "T3 sequence (Q12809 whole entry)": "as above", "test": "hERG binding protocol (radioligand competition, HEK cell membranes expressing hERG)", "conditions": "human, HEK cell membranes expressing hERG, pH 7.4; highest concentration tested", "procedure": "as §1, §2, §3"}, "[4]": {"test": "Plasma protein binding (equilibrium dialysis)", "assay_type": "in vitro ADME", "conditions": "pH 7.4; human plasma, 37° C., 5 μM compound; read-out: human plasma protein binding (% bound) (converted)", "procedure": "The extent of plasma protein binding was determined via equilibrium dialysis of a compound between human plasma and aqueous buffer at 37° C., and determination of the concentrations of compound in the plasma and buffer by HPLC-MS/MS.\nDialysis cells (molecular weight cut-off 5000) were prepared by rinsing with water followed by soaking in the dialysis buffer for a minimum of 1 hour. The dialysis buffer was isotonic buffered saline pH 7.4. Stock solutions of compound in dimethylsulfoxide were prepared at a concentration of 0.5 mM.\nThe stock DMSO solution of compound was added to the plasma at a ratio of 10 μl of DMSO to each ml of plasma. This gave a 1% DMSO in plasma solution with each compound at a concentration of 5 μM.\nDialysis cells were then prepared and one half of the cell filled with 750 μl of dialysis buffer and the other half of the cell with 750 μl of plasma solution of compound. […]\nThe samples were then analysed using HPLC-MS/MS. […]\nThe concentration of compound in the samples were determined using MassLynx version 4.1 software (produced by Waters/Micromass) that automatically calculated a calibration curve and interpolated the concentration of compound in the analytes. Plasma protein binding was determined from the measured concentration as the percentage of compound bound in plasma (% bound) using the following equation;"}, "[5]": {"tested_on": "primary rat hepatocytes", "test": "In vitro phospholipidosis protocol (DHPE-TRITC accumulation)", "assay_type": "cell-based, Han Wistar rats", "procedure": "Assessment of a compounds potential to induce phospholipidosis was determined by an in vitro fluorescent assay which reports the accumulation of phospholipids in primary rat hepatocytes. Hepatocytes were isolated from Han Wistar rats by a 2-stage collagenase digest method. The hepatocytes were then plated on collagen coated 96-well plates in William's E medium. The cells were left to adhere for 1 hour then the media was replaced with a solution of 250 μg.ml^−1 collagen in Hepatozyme cell culture medium.\nCells were then cultured for 48 hours with the medium being changed at 24 hours. At 48 hours post isolation the medium was changed to Hepatozyme supplemented with the fluorescent phospholipid N-(6-tetramethylrhodaminethiocarbamoyl)-1,2-dihexadecanoyl-sn-glycero-3-phosphoethanolamine (DHPE-TRITC) (5 μg.ml^−1). At this time, test compounds were added to the hepatocytes at a range of concentrations in a serial dilution with a final concentration of 0.4% dimethylsulfoxide (used as solvent for test compounds).\nThe cells were incubated for a further 24 hours and then fixed by addition of a phosphate buffered saline (PBS) solution containing the nuclear stain Hoechst 33342 (final concentration 2 μM) and paraformaldehyde solution (final concentration 4%). The plates were kept at room temperature for 30 minutes then washed three times in PBS solution.\nImages of the hepatocytes were then acquired using an automated microscope platform (GE In Cell Analyser 3000). Image analysis algorithms were then used to assess cell viability and the accumulation of the DHPE-TRITC label within viable hepatocytes. The quantified accumulation observed with test compounds was then normalised to a range of 0, representing the accumulation observed in cells exposed to vehicle only, and 1, representing cells exposed to 10 μM amiodarone. The maximum accumulation across the dose response of the test compound, where cell viability is >50%, is reported, as is the dose at which this maximum was observed. The lowest dose that caused >50% cell toxicity is also reported. […]"}, "[6]": {"test": "Bioavailability - Rat PK", "assay_type": "in vivo, male Sprague Dawley rats", "conditions": "male, Sprague Dawley, plasma, oral 5 mg/kg vs IV 3 mg/kg", "procedure": "Pharmacokinetic parameters and concepts are used in DMPK to describe the fate of a compound in the body. The distribution and excretion of a compound are reflected in the plasma concentration-time profile. By appropriate dosing, sampling and analysis key as parameters (clearance, volume, half-life, bioavailability etc.) can be determined.\nTest compounds were typically dosed intravenously to the right lateral tail vein of male Sprague Dawley rats at a dose level of 3 mg/kg (1 ml/kg) in DMA:water (40:60 v/v). Rats were dosed orally at a dose level of 5 mg/kg (2 ml/kg) in 0.5% hydroxypropylmethylcellulose (HPMC, w/v)/0.1% Tween 80 (v/v) in water). […]\nTo determine the plasma levels of test compound, 50 μl of methanol was added to 50 μl of each of the test samples, whilst 40 μl of methanol was added to the 50 μl aliquots of control plasma containing 10 μl spikes of authentic standard used to create a calibration line and QCs. […] The resultant supernatants were analysed by HPLC-MSMS after an appropriate, selective and sensitive method had been created by optimizing both cone voltage and collision energy.\nPharmacokinetic parameters were derived from concentration-time using non-compartmental analysis in WinNonLin®. Bioavailability was calculated using the following equation F=AUCPO*DoseIV/AUCIV*DosePO."}}, "note": "Like-named read-outs stand apart in the source and are kept apart here."}
{"smiles": "O=C(NCC1(O)CCCCCC1)c1c(Cl)ccc2nc(N3CC[C@H](NCCO)C3)ccc12", "note": "[Example 1, 6-Chloro-N-[(1-hydroxycycloheptyl)methyl]-2-{(3S)-3-[(2-hydroxyethyl)amino]-pyrrolidin-1-yl}quinoline-5-carboxamide]", "values": [{"measurement": "IC50", "setting": "[1]; 10^-5M bbATP, antagonist activity, read-out: P2X7 pIC50 (converted)", "value": 3.98, "unit": "nM"}, {"measurement": "IC50", "setting": "[1]; bbATP, read-out: P2X7 IC50", "value": "≤ 5", "unit": "nM"}, {"measurement": "IC50", "setting": "[2]; radioligand competition binding", "value": "> 100000", "unit": "nM"}, {"measurement": "P2X7:hERG Ratio", "setting": "[2]", "value": ">20,000"}, {"measurement": "P2X7:hERG Ratio", "setting": "[2]; listed as compound according to the present invention", "value": "> 20,000"}, {"measurement": "inhibition at 3 h", "setting": "[3]", "value": "< 50", "unit": "%"}, {"measurement": "melting point", "value": "138 to 140", "unit": "°C"}, {"measurement": "fraction unbound at 5 µM", "setting": "[4]", "value": 0.3}, {"measurement": "maximum accumulation concentration", "setting": "[5]; dose at which maximum accumulation was observed", "value": 71, "unit": "µM"}, {"measurement": "minimum toxic concentration", "setting": "[5]; lowest dose that caused >50% cell toxicity", "value": 198, "unit": "µM"}, {"measurement": "maximum accumulation (phospholipidosis)", "setting": "[5]; relative to 10 μM amiodarone control (=1), vehicle = 0, cell viability >50%", "value": 0.9}, {"measurement": "bioavailability", "setting": "[6]", "value": 14, "unit": "%"}]}
